Molecules are shown by their SMILES. Read-outs that look alike come from different tables or passages of the source.

What is called IC50 is the concentration at which inhibition is half-maximal. As usually defined, the IC90 is the concentration at which the effect reaches the 90% level. The inhibition is the change of the read-out against control, counted positive when it falls.

In experiment [1] the test system is T1, Plasmodium falciparum Dd2^Dd2crt.
T1 construct: Dd2
Put plainly: microbe, parasite or virus in culture. More on the design: species or system P. falciparum in human red blood cells; asexual blood stage growth inhibition, flow cytometry with SYBR Green I and MitoTracker Deep Red. As to conditions: DD2, Erythrocyte, 72 h. How it is done: Susceptibility to all drugs tested in this study was measured by incubating asynchronous, ABS parasites plated at 0.2% to 0.3% parasitemia (or 0.8% for the poorly growing ZY19489-resistant lines harboring the pfcrt N246H allele) and 1% hematocrit at 37 °C in 96-well plates. The assays were set up across a range of drug concentrations with two-fold dilutions. For the experiments testing for susceptibility of recrudescent parasite lines that emerged in humanized NSG mice to ZY19489, M5717, MMV693183, or ferroquine, parasites were cultured at 2% hematocrit in human O^+ or A^+ RBCs in RPMI-1640 media, supplemented with 25 mM HEPES (Fisher), 50 mg/L hypoxanthine (Sigma Aldrich), 2 mM L-glutamine (Cambridge Isotope Laboratories, Inc.), 0.21% sodium bicarbonate (Sigma Aldrich), 0.5% (w/v) Albumax (Invitrogen), 8% filtered, heat-inactivated, pooled off-the-clot AB^+ human serum (Interstate Blood Bank or New York Blood Center), and 10 μg/mL gentamicin (Fisher). The parental P. falciparum Pf3D7^0087/N9 strain that has been adapted to proliferate in this humanized NSG mouse model was cultured in parallel as the drug-sensitive control strain. All compound susceptibility assays for the recrudescent lines and parental control strain were performed using 8% serum-containing medium. Parasite growth in each well was assessed after 72 h using flow cytometry of cultures stained with SYBR Green I and MitoTracker Deep Red (Supplementary Fig. S12). IC50 and IC90 values were derived from growth inhibition data using nonlinear regression analysis (GraphPad Prism 7) or linear interpolation (assays for recrudescent lines from humanized mice). Unless otherwise stated, assays were performed on four independent occasions with technical duplicates, and statistical comparisons were made using two-tailed Mann–Whitney U tests. Gated RBCs 97.0% Live parasites 3.80% A B Forward scatter (FSC-H) MitoTracker Deep Red Supplementary Fig. 12: Gating strategy for flow cytometry-based quantification of P. falciparum asexual blood stage parasite proliferation in drug susceptibility and growth rate assays. Intra-erythrocytic parasites were seeded at 0.3% - 0.8% parasitemia and 1% hematocrit for 72 hours in the presence of a range of drug concentrations that had been 2-fold serially diluted in duplicates along with drug-free controls. Cells were then labeled with 1× SYBR Green (Invitrogen) and 100 nM MitoTracker Deep Red FM (Invitrogen) as nuclear stain and vital dyes, respectively. Parasite survival was assessed by flow cytometry on an Intellicyt iQue3 (Essen Bioscience). Between 9,000 and 15,000 events were counted per sample. […] (A) Forward (FSC-H) and side scatter (SSC-H) gating of the total red blood cell (RBC) population, representing 97.0% of the total events counted. (B) Gating strategy used to quantify viable intracellular parasites, which are positively stained by both MitoTracker Deep Red and SYBR Green I and appear as events in the upper right gate (live parasites, 3.80% parasitemia). Uninfected erythrocytes appear in the lower left gate as MitoTracker Deep Red and SYBR Green I negative populations.

The target in experiment [2] is T2, P. falciparum chloroquine resistance transporter (PfCRT), 7G8 + F145I isoform (Plasmodium falciparum, UniProt W7FI62, F145I).
T2 construct: gene CRT; purified PfCRT 7G8 + F145I reconstituted in proteoliposomes
Put plainly: […] [3H]PPQ uptake in PfCRT proteoliposomes. Format: biochemical.

Experiment [3] has as its target T3, P. falciparum chloroquine resistance transporter (PfCRT), 7G8 isoform (Plasmodium falciparum, UniProt W7FI62).
T3 construct: gene CRT; purified PfCRT 7G8 reconstituted in proteoliposomes
Put plainly: […] [3H]CQ uptake in PfCRT proteoliposomes. Format: biochemical.

Experiment [4] relates to T4, Plasmodium falciparum TAD_022.
T4 construct: 3D7^0087/N9 (TAD_022)
Put plainly: microbe, parasite or virus in culture. Further details: species or system P. falciparum 3D7^0087/N9 in human red blood cells; asexual blood stage growth inhibition in 8% human serum medium, flow cytometry. As to conditions: Erythrocyte, 72 h; for IC50: read-out: IC50 ± SEM (nM); for IC90: read-out: IC90 ± SEM (nM). On the procedure:
Susceptibility to all drugs tested in this study was measured by incubating asynchronous, ABS parasites plated at 0.2% to 0.3% parasitemia (or 0.8% for the poorly growing ZY19489-resistant lines harboring the pfcrt N246H allele) and 1% hematocrit at 37 °C in 96-well plates. The assays were set up across a range of drug concentrations with two-fold dilutions. For the experiments testing for susceptibility of recrudescent parasite lines that emerged in humanized NSG mice to ZY19489, M5717, MMV693183, or ferroquine, parasites were cultured at 2% hematocrit in human O^+ or A^+ RBCs in RPMI-1640 media, supplemented with 25 mM HEPES (Fisher), 50 mg/L hypoxanthine (Sigma Aldrich), 2 mM L-glutamine (Cambridge Isotope Laboratories, Inc.), 0.21% sodium bicarbonate (Sigma Aldrich), 0.5% (w/v) Albumax (Invitrogen), 8% filtered, heat-inactivated, pooled off-the-clot AB^+ human serum (Interstate Blood Bank or New York Blood Center), and 10 μg/mL gentamicin (Fisher). The parental P. falciparum Pf3D7^0087/N9 strain that has been adapted to proliferate in this humanized NSG mouse model was cultured in parallel as the drug-sensitive control strain. All compound susceptibility assays for the recrudescent lines and parental control strain were performed using 8% serum-containing medium. Parasite growth in each well was assessed after 72 h using flow cytometry of cultures stained with SYBR Green I and MitoTracker Deep Red (Supplementary Fig. S12). IC50 and IC90 values were derived from growth inhibition data using nonlinear regression analysis (GraphPad Prism 7) or linear interpolation (assays for recrudescent lines from humanized mice). Unless otherwise stated, assays were performed on four independent occasions with technical duplicates, and statistical comparisons were made using two-tailed Mann–Whitney U tests. To assess potential cross-resistance between M5717 and ZY19489, we tested three M5717-resistant lines (TAD_470, TAD_462, and TAD_464), which harbored distinct PfeEF2 mutations (I183M, P754S, and I182T, respectively), for susceptibility to ZY19489.

Experiment [5] addresses T2, P. falciparum chloroquine resistance transporter (PfCRT), 7G8 + F145I isoform. Put plainly: inhibition of [3H]PPQ uptake in PfCRT proteoliposomes. Format: biochemical. As to conditions: read-out: % inhibition of [3H]PPQ transport at 1 μM.

T2 sequence (W7FI62 whole entry F145I, canonical isoform): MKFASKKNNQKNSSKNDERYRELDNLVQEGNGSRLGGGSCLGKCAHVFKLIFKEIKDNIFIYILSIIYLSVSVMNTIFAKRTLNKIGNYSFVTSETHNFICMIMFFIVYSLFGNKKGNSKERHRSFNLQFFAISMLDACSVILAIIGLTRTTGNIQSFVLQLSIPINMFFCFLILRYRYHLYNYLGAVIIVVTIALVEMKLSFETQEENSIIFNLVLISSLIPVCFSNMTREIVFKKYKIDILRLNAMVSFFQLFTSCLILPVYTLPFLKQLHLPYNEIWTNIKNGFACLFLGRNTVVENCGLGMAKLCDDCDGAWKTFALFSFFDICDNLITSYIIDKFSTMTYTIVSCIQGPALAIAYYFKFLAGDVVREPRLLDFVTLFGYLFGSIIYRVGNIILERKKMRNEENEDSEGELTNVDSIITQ
T3 sequence (W7FI62 whole entry, canonical isoform): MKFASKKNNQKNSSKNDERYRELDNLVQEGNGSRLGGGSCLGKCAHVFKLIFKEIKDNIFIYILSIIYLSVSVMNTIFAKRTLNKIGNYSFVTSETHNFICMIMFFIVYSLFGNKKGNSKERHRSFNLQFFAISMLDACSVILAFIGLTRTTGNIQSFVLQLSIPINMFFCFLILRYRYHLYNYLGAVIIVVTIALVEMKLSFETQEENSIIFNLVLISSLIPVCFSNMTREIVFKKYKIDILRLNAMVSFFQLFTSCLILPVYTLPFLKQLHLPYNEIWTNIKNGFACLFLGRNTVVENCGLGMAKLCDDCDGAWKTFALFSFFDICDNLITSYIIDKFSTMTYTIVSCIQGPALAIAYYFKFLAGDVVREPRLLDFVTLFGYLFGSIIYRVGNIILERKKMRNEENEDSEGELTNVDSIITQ

`CCNCc1cc(Nc2ccnc3cc(Cl)ccc23)ccc1O` [DEAQ, mono-desethylamodiaquine]: the 50% inhibitory concentration (IC50) in experiment [1] (read-out: DEAQ IC50) is 43.8 ± 5.9 nM. For the same molecule, the IC90 in experiment [1] (read-out: DEAQ IC90) was found to be 78.7 ± 8.8 nM.
On to `O=C1CCC(N2C(=O)c3ccccc3C2=O)C(=O)N1` (stereo not drawn) [Thalidomide], for which the IC50 in experiment [1] (read-out: IC50 (nM)) was found to be 85200 ± 5060 nM. Moreover, the IC90 in experiment [1] (read-out: IC90 (nM)) came to 115700 ± 1110 nM.
For the molecule `CCCCN(CCCC)CC(O)c1cc(Cl)cc2c1-c1ccc(Cl)cc1/C2=C/c1ccc(Cl)cc1` (stereo not drawn) [LMF, lumefantrine], the 50% inhibitory concentration (IC50) in experiment [1] (read-out: LMF IC50) worked out at 6 ± 1.2 nM. Also, in experiment [1] (read-out: LMF IC90), the IC90 came to 11.2 ± 1.8 nM.
Take `C[C@H]1[C@@H](O)O[C@@H]2O[C@@]3(C)CC[C@H]4[C@H](C)CC[C@@H]1[C@@]24OO3` [DHA, dihydroartemisinin]: in experiment [1] (read-out: DHA IC50), the 50% inhibitory concentration (IC50) is 2.6 ± 0.2 nM. The concentration for an effect of 90% (IC90) in experiment [1] (read-out: DHA IC90) was found to be 4.7 ± 0.6 nM.
In the case of `Clc1ccc2c(N3CCN(CCCN4CCN(c5ccnc6cc(Cl)ccc56)CC4)CC3)ccnc2c1` [PPQ, piperaquine], in experiment [2], the “100 nM [3H]PPQ uptake in PfCRT proteoliposomes” value was “interference was also observed against [^3H]PPQ transport by the PPQ-resistant isoform 7G8 + F145I”. The IC50 in experiment [1] (read-out: PPQ IC50) is 12 ± 1 nM. The IC90 in experiment [1] (read-out: PPQ IC90) came out at 22.3 ± 4.6 nM.
Take `COc1ccc(C2=N[C@@H](c3ccc(Cl)cc3)[C@@H](c3ccc(Cl)cc3)N2C(=O)N2CCNC(=O)C2)c(OC(C)C)c1` [Nutlin-3]: the half-inhibitory concentration (IC50) in experiment [1] (read-out: IC50 (nM)) was 5660 ± 511 nM. For the same molecule, in experiment [1] (read-out: IC90 (nM)), the IC90 worked out at 9130 ± 714 nM.
Consider `COC(=O)[C@H](CCCN=C(NC(=O)OCOC(=O)Cc1ccccc1)NC(=O)OCOC(=O)Cc1ccccc1)NS(=O)(=O)c1ccc(C)cc1` [pro-TAME], for which the half-inhibitory concentration (IC50) in experiment [1] (read-out: IC50) was determined as 58400 ± 7100 nM. Moreover, the IC90 in experiment [1] (read-out: IC90) came out at 91000 ± 11300 nM.
On to `CCN(CC)CCCC(C)Nc1ccnc2cc(Cl)ccc12` (stereo not drawn) [CQ, chloroquine], for which the IC50 in experiment [1] (read-out: CQ IC50) amounted to 104 ± 5.7 nM; in experiment [1] (read-out: IC50 (nM)), 94.6 ± 6.6 nM. Further, the IC90 in experiment [1] (read-out: CQ IC90) turned out to be 217 ± 11.3 nM; in experiment [1] (read-out: IC90 (nM)), 177 ± 24.1 nM. For the same molecule, in experiment [3], the “100 nM [3H]CQ uptake in PfCRT proteoliposomes” value was “[^3H]CQ transport by the CQ-resistant 7G8 isoform”.
Turning to `O=C(NCCN1CCCC1)c1cc(-c2ccc(CN3CCOCC3)cc2)nc2ccc(F)cc12` [M5717], in experiment [4], the IC50 came out at 0.4 ± 0.01 nM and the IC90 amounted to 0.8 ± 0.1 nM.
For `O=C1C(O)=C([C@H]2CC[C@H](c3ccc(Cl)cc3)CC2)C(=O)c2ccccc21` [ATQ, atovaquone], the 50% inhibitory concentration (IC50) in experiment [1] (read-out: ATQ IC50) came to 2.5 ± 0.4 nM. Moreover, the 90% effect concentration (IC90) in experiment [1] (read-out: ATQ IC90) came to 5.3 ± 0.7 nM.
`Cc1nc(Nc2ncc(N3CCN(C)[C@H](C)C3)c(Nc3cc(C)n(C)n3)n2)cc(C2CC2)c1F` [ZY19489]: in experiment [4], the IC50 came to 7.2 ± 0.9 nM and the IC90 came out at 17.1 ± 1.1 nM. Further, the inhibition at 1 µM in experiment [5] amounted to 79%.

Values taken from publication PMC13280021, “Collateral hypersensitivity between ZY19489 and piperaquine neutralizes PfCRT-mediated drug efflux and Plasmodium falciparum resistance” (Nature Communications, 2025).
